The source of these data is article PMC4519959, “Baicalin Protects Mice from Aristolochic Acid I-Induced Kidney Injury by Induction of CYP1A through the Aromatic Hydrocarbon Receptor” (International Journal of Molecular Sciences, 2015).

In data set [1] the test system is CYP1A2. Conditions: mice.
For data set [2], the system named is AAI-induced renal damage. Description: AAI nephrotoxicity in mice (serum BUN, CRE, kidney H&E histopathology). It is filed as in vivo, C57BL/6 mice. From the text: Mice were pretreated with baicalin for three days.
Figure 2 Effects of baicalin on aristolochic acid I (AAI) nephrotoxicity. Blood samples were collected to obtain serum for the measurement of blood urea nitrogen (BUN) (A) and creatinine (CRE) (B); (C) Kidneys were collected to perform hematoxylin and eosin (H&E) staining. Arrowheads, tubular dilation; stars, tubular necrosis and granular casts. Scale bar, 100 μm.
Male C57BL/6 mice (6–7 weeks old, 20–22 g) were obtained from Shanghai Laboratory Animal Center. All animal experiments were approved by the Shanghai Animal Care and Use Committee (Certificate No. SCXK [Shanghai] 2002-0010). […] Each group received different treatments as defined in Figure 7. Blood and liver tissues were collected and stored at −80 °C until use. Serum blood urea nitrogen (BUN) and creatinine (CRE) were measured by an automatic HITACHI Clinical Analyzer Model 7080 (Hitachi, Tokyo, Japan).
Kidneys were collected at the indicated time points and fixed in 10% formalin solution before being embedded in paraffin for sectioning into 5-μm-thick sections. Sections were stained with hematoxylin and eosin (H&E) using standard pathology procedures and evaluated by a pathologist as described previously.

Data set [3] can be described thus: Pharmacokinetics of AAI and AAIa in mouse plasma (HPLC). It is filed as in vivo, C57BL/6 mice. Conditions: for AUC / Cmax / Tmax / t1/2: AAI in mouse plasma. From the text: AAIa is the major metabolite of AAI oxidative metabolism by CYP1A. We studied the pharmacokinetics of AAI and its metabolites in vivo. […] Simultaneously, the level of AAIa, the major metabolite of AAI, was higher in the plasma of the baicalin-pretreated group than that in the AAI group (Figure 3B).
(§1) Figure 3 Levels of AAI and its major metabolite AAIa in the plasma, liver, and kidney. Blood samples were collected from mice at the indicated time points after AAI injection. Plasma levels of AAI (A) and AAIa (B) were measured by high-performance liquid chromatography (HPLC); Tissue samples from mice were collected at 30 min after AAI injection to determine the levels of AAI (C) and AAIa (D).
(§2) Blood samples (40 μL each) were collected in heparin-coated capillaries and mixed with 50 μL saline. The samples were spun at 3000× g for 10 min at 4 °C. Tissue samples were homogenized in saline and spun at 14,000× g for 10 min, and the supernatants were then mixed with 100 μg/mL (final concentration) indomethacin (internal standard, IS) and 2 volumes of methanol and spun again at 14,000× g for 5 min to remove precipitated proteins. Aliquots of the final supernatants were analyzed and quantified for the levels of AAI and its metabolite AAIa by high-performance liquid chromatography (HPLC), as described below.
The quantification of AAI and its metabolite AAIa was carried out with a Waters 9625 HPLC system (Sunnyvale, CA, USA). For AAI, the linear ranges of the calibration curves were 0–100 μg/mL in the plasma, liver, and kidney, the regression equations were y = 32.186x + 1.1609 (r^2 = 0.9992), y = 38.261x − 1.2753 (r^2 = 0.9688), and y = 80.334x + 1.7436 (r^2 = 0.9987), respectively, where y is the peak area and x is the concentration of the analyte. The identity of AAIa was confirmed with synthesized standards provided by Minghua Xu (Shanghai Institute of Materia Medica, Shanghai, China).

The subject of data set [4] is CYP1A2. It is filed as cell-based, human. Conditions: Fa2N-4 cells, DMF 2 μM with baicalin, 24 h. Here is the method: (§3) The immortalized hepatocyte cell line Fa2N-4 (Xenotech, Kansas City, KS, USA) was maintained in BEGM Bullet kit medium with 10% heat inactivated fetal bovine serum (FBS) and 1% antibiotic-antimycotic solution (Invitrogen, Carlsbad, CA, USA) at 37 °C in a humidified atmosphere of 95% air and 5% CO2. Fa2N-4 cells were plated in 6-well plates to achieve ~80% confluence next day. Cells were collected at 24 h after treatment with vehicle or baicalin (0–100 μM) in the presence or absence of 3ʹ,4ʹ-DMF (2 μM).

The test system of data set [5] is CYP1A1. Description: CYP1A1 mRNA and protein expression in Fa2N-4 cells (real-time PCR, Western blot). Format: cell-based, human. The settings on record: 24 h. Here is the method:
as §3

The test system of data set [6] is CYP1A1. Description: Hepatic CYP1A1 mRNA and protein expression in mice. Format: in vivo, mouse. Conditions: baicalin 80 mg/kg daily for 3 days.
For data set [7], the system named is X1 (+1 to −2867 of CYP1A1) segment of the CYP1A promoter. Put plainly: Luciferase reporter assay pGL4.10-X1 in HepG2 cells. Format: cell-based, human. The settings on record: baicalin 1, 10 or 50 μM, BNF 50 μM, normalized to renilla luciferase. From the text:
(§4) Two pGL4.10 luciferase plasmids containing X1 (+1 to −2867 of CYP1A1) and X2 (−21,148 to −24,409 of CYP1A1; Figure 6A) segments were transfected into HepG2 cells to investigate the effects of baicalin.
(§5) Figure 6 Effects of baicalin on the AhR-mediated activation of different segments of the CYP1A promoter in HepG2 cells. (A) Location of two insert segments, X1 and X2; and (B) Effects of baicalin and BNF on the luciferase activity of pGL4.10-X1; (C) Effects of baicalin and BNF on the luciferase activity of pGL4.10-X2. Luciferase activity was determined by firefly luciferase assay with data normalized to renilla luciferase activity. The results are expressed as the activity in drug treatment groups relative to that of the vehicle control. Each value is expressed as the mean ± SD. * p < 0.05, ** p < 0.01, *** p < 0.001 versus the plasmid only group. […]
(§6) HepG2 cells were seeded at a density of 1.0 × 10^5 cells/mL in 6-well plates to achieve ~50% confluence the next day and were then transfected with pGL4.10-X1/2 plasmids using Lipofectamine 2000 (Invitrogen). […] Thereafter, cells were collected and further assayed for firefly luciferase activity, which was normalized to the activity of renilla luciferase, using the Dual-Luciferase Reporter Assay System (Promega, Madison, WI, USA) and a Biotek Synergy 4 Microplate reader (Biotek, Winooski, VT, USA). […]
Background: In a reporter assay the amount or activity of a reporter protein is the signal.

The subject of data set [8] is X2 (−21,148 to −24,409 of CYP1A1) segment of the CYP1A promoter. Description: Luciferase reporter assay pGL4.10-X2 in HepG2 cells. It is filed as cell-based, human. Conditions: baicalin 1, 10 or 50 μM, BNF 50 μM, normalized to renilla luciferase.
Text: as §4, §5, §6

A short description of data set [9]: Levels of AAI and AAIa in mouse liver and kidney (HPLC). It is filed as in vivo, C57BL/6 mice. Conditions: baicalin pretreatment; 30 min after AAI 10 mg/kg i.p.; versus AAI group. Here is the method: as §1
To examine whether the change in pharmacokinetics of AAI upon baicalin pretreatment was due to changes in the tissue distribution of AAI, the levels of AAI and AAIa in the livers and kidneys were measured by HPLC.
as §2
The quantification of AAI and its metabolite AAIa was carried out with a Waters 9625 HPLC system (Sunnyvale, CA, USA). […]

The subject of data set [10] is CYP1A2. Put plainly: Screening of herbal compounds for CYP1A2 induction in Fa2N-4 cells (mRNA, real-time PCR). It is filed as cell-based, human. Conditions: 10 μM, compared among seven herbal compounds. Here is the method: To screen CYP1A2 inducers, Fa2N-4 cells, a non-tumorigenic immortalized human hepatic cell line, were treated with seven different herbal compounds.
Figure 1 Screening of herbal compounds for their activities in inducing CYP1A2 in Fa2N-4 cells. Cells were pre-treated with candidate compounds at 10 μM. CYP1A2 mRNA was quantified by real-time PCR. con: control (negative control); 1: omeprazole (positive control); 2: kaempferide; 3: catalpol; 4: isorhamnetin; 5: ferulic acid; 6: ligustrazine; 7: astragaloside; 8: baicalin. *** p < 0.001 versus the negative control.
as §3
Background: Real-time PCR tracks product formation cycle by cycle.

The mark [11] stands for this setting: AAI 10 mg/kg i.p. after baicalin 80 mg/kg daily for 3 days.
Where [12] appears, read: AAI 10 mg/kg i.p. after baicalin 160 mg/kg daily for 3 days.
Where [13] appears, read: baicalin 80 or 160 mg/kg daily for 3 days, then AAI 10 mg/kg i.p. on day 4, versus AAI only.
Where [14] appears, read: baicalin pretreatment, then AAI 10 mg/kg i.p., versus AAI group.

For orientation: AUC means concentration integrated over time. Read a high AUC as more exposure. Usually Cmax stands for the peak of the concentration-time curve. Usually Tmax stands for the time at which the peak concentration occurs.

With `Oc1ccc(/C=C/c2cc(O)cc(O)c2)cc1` [RES, resveratrol, reference compound], the “effect on induction of hepatic CYP1A2 by baicalin” value in data set [1] (RES 50 mg/kg with baicalin 80 mg/kg daily for 3 days) is listed as “pronouncedly attenuated”.
Take `COc1cccc2c1cc([N+](=O)[O-])c1c(C(=O)O)cc3c(c12)OCO3` [AAI, aristolochic acid I]: the “kidney lesions (H&E histopathology)” value in data set [2] (AAI 10 mg/kg i.p., seven days after AAI administration) is “extensive tubular necrosis, and tubular dilation”. In data set [3] (setting [11]), the AUC is listed as 759.39 ± 23.26 ** min·μg/mL, the Cmax was found to be 4430 ± 240 ng/mL, the Tmax is 10.00 ± 0 min and the t1/2 was 77.96 ± 6.84 min. In [3] (setting [12]), the AUC is 710.07 ± 33.95 *** min·μg/mL, the Cmax was 3890 ± 430 ng/mL, the Tmax turned out to be 9 ± 2.24 min and the t1/2 is given as 80.83 ± 3.02 min. For the same compound, in data set [3] (AAI 10 mg/kg i.p., no baicalin), the AUC was found to be 844.96 ± 40.12 µg·min/mL, the Cmax was found to be 4990 ± 410 ng/mL, the Tmax came out at 10.00 ± 0 min and the t1/2 was determined as 78.68 ± 12.88 min.
For the compound `COc1ccc(-c2cc(=O)c3ccccc3o2)cc1OC` [DMF, 3ʹ,4ʹ-dimethoxyflavone, reference compound], the “effect on baicalin-induced CYP1A2 expression” value in data set [4] is recorded as “abolished”. For the same compound, the “effect on baicalin-induced CYP1A1 expression” value in [5] (DMF 2 μM with baicalin) was “abolished”.
For `O=C(O)[C@H]1O[C@@H](Oc2cc3oc(-c4ccccc4)cc(=O)c3c(O)c2O)[C@H](O)[C@@H](O)[C@@H]1O` [baicalin], the “CYP1A1 expression in the liver at mRNA and protein level” value in data set [6] is “pronouncedly increased”. The “CYP1A2 expression in the liver at mRNA and protein level” value in [1] (baicalin 80 mg/kg daily for 3 days) is “pronouncedly increased”. In addition, the “CYP1A1 expression at mRNA and protein level” value in data set [5] (100 μM) was “increased”. Further, in [5] (10 or 50 μM), the CYP1A1 expression result was “relatively mild effect”. In data set [2] (setting [13]), the “blood urea nitrogen (BUN) induced by AAI” value was “significantly reduced” and the “creatinine (CRE) induced by AAI” value is given as “significantly reduced”. For the same compound, the “kidney lesions (H&E histopathology)” value in data set [2] (baicalin pretreatment for 3 days, then AAI 10 mg/kg i.p., versus AAI group) is “fewer lesions”. Further, in data set [3] (setting [14]), the “effect of pretreatment on the level of AAI in mice (plasma, AUC)” value is given as “markedly decreased” and the “effect of pretreatment on the level of AAIa in the plasma” value is listed as “higher”. In [7], the “luciferase activity of pGL4.10-X1 relative to vehicle control” value is reported as “increased the luciferase activity”. The “luciferase activity of pGL4.10-X2 relative to vehicle control” value in [8] is given as “increased the luciferase activity”. Besides, in data set [9], the “effect of pretreatment on the level of AAI in livers and kidneys” value is “reduced levels”; the “effect of pretreatment on the level of AAIa in livers and kidneys” value is on record as “reduced levels”. For the same compound, the “CYP1A2 gene expression at the mRNA level (induction)” value in data set [10] is “most potent compound in inducing CYP1A2 gene expression”.
On to `O=c1cc(-c2ccccc2)oc2ccc3ccccc3c12` [BNF, β-Naphthoflavone, reference compound], for which the “luciferase activity of pGL4.10-X1 relative to vehicle control” value in data set [7] is listed as “increased the luciferase activity”. Moreover, in data set [8], the “luciferase activity of pGL4.10-X2 relative to vehicle control” value was “increased the luciferase activity”.
